Measurements reported in ChEMBL document CHEMBL5335775, “Bioisosteric replacement of 1H-1,2,3-triazole with 1H-tetrazole ring enhances anti-leukemic activity of (5-benzylthiazol-2-yl)benzamides” (Eur J Med Chem, 2023).

What was measured:
UACC-62 [1] = assay: Anticancer activity against human UACC-62 cells assessed as cell growth at 10^-5 M incubated for 48 hrs by SRB assay relative to control; assay type: functional; settings: UACC-62, 48 h, dose 1 10^-5M, read-out: Activity
[2] = Antiproliferative activity against J774.2 cells assessed as inhibition of cell proliferation measured after 72 hrs by MTT assay; assay type: toxicity, cell-based; settings: mouse
HCC 2998 = assay: Anticancer activity against human HCC 2998 cells assessed as cell growth at 10^-5 M incubated for 48 hrs by SRB assay relative to control; assay type: functional; settings: HCC 2998, 48 h, dose 1 10^-5M, read-out: Activity
K562 [3] = assay: Inhibition of cell growth in human K562 cells incubated for 48 hrs by SRB assay; assay type: functional, cell-based; settings: K562, 48 h
SW-620 = assay: Inhibition of cell growth in human SW-620 cells incubated for 48 hrs by SRB assay; assay type: functional, cell-based; settings: SW-620, 48 h
[4] = Antiproliferative activity against human HaCaT cells assessed as inhibition of cell proliferation measured after 72 hrs by MTT assay; assay type: toxicity, cell-based
UACC-62 [5] = assay: Inhibition of cell growth in human UACC-62 cells incubated for 48 hrs by SRB assay; assay type: functional, cell-based; settings: UACC-62, 48 h
M14 [6] = assay: Anticancer activity against human M14 cells assessed as cell growth at 10^-5 M incubated for 48 hrs by SRB assay relative to control; assay type: functional; settings: M14, 48 h, dose 1 10^-5M, read-out: Activity
LOX IMVI = assay: Anticancer activity against human LOX IMVI cells assessed as cell growth at 10^-5 M incubated for 48 hrs by SRB assay relative to control; assay type: functional; settings: dose 1 10^-5M, read-out: Activity
HCT-15 [7] = assay: Inhibition of cell growth in human HCT-15 cells incubated for 48 hrs by SRB assay; assay type: functional, cell-based; settings: HCT-15, 48 h
CAKI-1 = assay: Anticancer activity against human CAKI-1 cells assessed as cell growth at 10^-5 M incubated for 48 hrs by SRB assay relative to control; assay type: functional; settings: CAKI-1, 48 h, dose 1 10^-5M, read-out: Activity
K562 [8] = assay: Anticancer activity against human K562 cells assessed as cell growth at 10^-5 M incubated for 48 hrs by SRB assay relative to control; assay type: functional; settings: K562, 48 h, dose 1 10^-5M, read-out: Activity
SK-MEL-5 = assay: Anticancer activity against human SK-MEL-5 cells assessed as cell growth at 10^-5 M incubated for 48 hrs by SRB assay relative to control; assay type: functional; settings: SK-MEL-5, 48 h, dose 1 10^-5M, read-out: Activity
K562 [9] = assay: Antiproliferative activity against human K562 cells assessed as inhibition of cell proliferation measured after 72 hrs by MTT assay; assay type: functional, cell-based; settings: K562, 72 h
[10] = Selectivity index, ratio of IC50 for […] to IC50 for human K562 cells; assay type: functional
M14 [11] = assay: Inhibition of cell growth in human M14 cells incubated for 48 hrs by SRB assay; assay type: functional, cell-based; settings: M14, 48 h
SF-295 = assay: Anticancer activity against human SF-295 cells assessed as cell growth at 10^-5 M incubated for 48 hrs by SRB assay relative to control; assay type: functional; settings: SF-295, 48 h, dose 1 10^-5M, read-out: Activity
[12] = Antiproliferative activity against NIH3T3 cells assessed as inhibition of cell proliferation measured after 72 hrs by MTT assay; assay type: toxicity, cell-based; settings: mouse
NCI-H460 = assay: Anticancer activity against human NCI-H460 cells assessed as cell growth at 10^-5 M incubated for 48 hrs by SRB assay relative to control; assay type: functional; settings: NCI-H460, 48 h, dose 1 10^-5M, read-out: Activity
HeLa = assay: Antiproliferative activity against human HeLa cells assessed as inhibition of cell proliferation measured after 48 hrs by MTT assay; assay type: functional, cell-based
KM12 = assay: Anticancer activity against human KM12 cells assessed as cell growth at 10^-5 M incubated for 48 hrs by SRB assay relative to control; assay type: functional; settings: KM12, 48 h, dose 1 10^-5M, read-out: Activity
MDA-MB-468 = assay: Anticancer activity against human MDA-MB-468 cells assessed as cell growth at 10^-5 M incubated for 48 hrs by SRB assay relative to control; assay type: functional; settings: MDA-MB-468, 48 h, dose 1 10^-5M, read-out: Activity
ACHN = assay: Anticancer activity against human ACHN cells assessed as cell growth at 10^-5 M incubated for 48 hrs by SRB assay relative to control; assay type: functional; settings: dose 1 10^-5M, read-out: Activity
MCF7 = assay: Anticancer activity against human MCF7 cells assessed as cell growth at 10^-5 M incubated for 48 hrs by SRB assay relative to control; assay type: functional; settings: MCF7, 48 h, dose 1 10^-5M, read-out: Activity
MDA-MB-435 = assay: Anticancer activity against human MDA-MB-435 cells assessed as cell growth at 10^-5 M incubated for 48 hrs by SRB assay relative to control; assay type: functional; settings: MDA-MB-435, 48 h, dose 1 10^-5M, read-out: Activity
HCT-15 [13] = assay: Anticancer activity against human HCT-15 cells assessed as cell growth at 10^-5 M incubated for 48 hrs by SRB assay relative to control; assay type: functional; settings: HCT-15, 48 h, dose 1 10^-5M, read-out: Activity
DU-145 = assay: Antiproliferative activity against human DU-145 cells assessed as inhibition of cell proliferation incubated for 3 days by Alamar blue dye based assay; assay type: functional; settings: DU-145, 72 h
[14] = Selectivity index, ratio of IC50 for human HaCaT cells to IC50 for human K562 cells; assay type: toxicity; settings: HaCaT cells and K562 cells, read-out: Ratio IC50
OVCAR-4 = assay: Anticancer activity against human OVCAR-4 cells assessed as cell growth at 10^-5 M incubated for 48 hrs by SRB assay relative to control; assay type: functional; settings: OVCAR-4, 48 h, dose 1 10^-5M, read-out: Activity
A549 = assay: Anticancer activity against human A549 cells assessed as cell growth at 10^-5 M incubated for 48 hrs by SRB assay relative to control; assay type: functional; settings: A549, 48 h, dose 1 10^-5M, read-out: Activity
NCI/ADR-RES = assay: Anticancer activity against human NCI/ADR-RES cells assessed as cell growth at 10^-5 M incubated for 48 hrs by SRB assay relative to control; assay type: functional; settings: dose 1 10^-5M, read-out: Activity
MOLT-4 = assay: Anticancer activity against human MOLT-4 cells assessed as cell growth at 10^-5 M incubated for 48 hrs by SRB assay relative to control; assay type: functional; settings: MOLT-4, 48 h, dose 1 10^-5M, read-out: Activity

Row | IC50 (K562 [9]) | Compound | growth at 10 µM (UACC-62 [1]) | IC50 at 72 h [2] | IC50 at 72 h [4] | growth at 10 µM (LOX IMVI) | growth at 10 µM (CAKI-1) | growth at 10 µM (K562 [8]) | Ratio IC50 [10] | IC50 at 72 h [12] | growth at 10 µM (NCI-H460) | growth at 10 µM (ACHN) | other results
1 | 7.57 µM | O=C(Nc1ncc(Cc2cc(Cl)ccc2Cl)s1)c1ccc(-n2cnnn2)cc1 | 8.26% | 34.7 µM | > 100 µM | 22.6% | 29% | 22.8% | 4.6 | > 100 µM | 33% | – | growth at 10 µM (HCC 2998): 22.7%; IC50 (K562 [3]): 0.577 µM; IC50 (SW-620): 0.508 µM; IC50 (UACC-62 [5]): 0.364 µM; growth at 10 µM (M14 [6]): 24.6%; IC50 (HCT-15 [7]): 0.894 µM; growth at 10 µM (SK-MEL-5): 22.4%; IC50 (M14 [11]): 0.696 µM; growth at 10 µM (SF-295): 30.9%
2 | – | CC(C)(C)c1nc(NC(=O)CN2CCN(c3ccc(O)cc3)CC2)sc1Cc1ccc(Cl)cc1 | – | – | – | – | – | – | – | – | – | – | IC50 (HeLa): 1.6 µM
3 | 20.1 µM | Cc1cccc(Cc2cnc(NC(=O)c3ccc(-n4cnnn4)cc3)s2)c1 | 12% | 43.2 µM | > 100 µM | 30.1% | 35.2% | 19.2% | 2.1 | > 100 µM | 25.8% | 30.7% | growth at 10 µM (M14 [6]): 33.8%; growth at 10 µM (KM12): 30.2%; growth at 10 µM (MDA-MB-468): 34.2%; growth at 10 µM (MCF7): 30.5%; growth at 10 µM (MDA-MB-435): 27.7%; growth at 10 µM (HCT-15 [13]): 34.6%
4 | > 100 µM | O=C(Nc1ncc(Cc2ccccc2)s1)c1ccc(-n2cnnn2)cc1O | – | 22.2 µM | > 100 µM | – | – | – | – | > 100 µM | – | – | –
5 | – | COc1ccc(Cc2cnc(NC(=O)/C=C/c3ccco3)s2)cc1 | – | – | – | – | – | – | – | – | – | – | IC50 (DU-145): 0.015 µM
6 | 8 µM | Cc1ccc(Cc2cnc(NC(=O)c3ccc(-n4cnnn4)cc3)s2)cc1 | 20.3% | 59.8 µM | 52.6 µM | 39.4% | 39.1% | 22.9% | – | > 100 µM | – | 39.5% | selectivity ratio [14]: 6.6
7 | 23.7 µM | O=C(Nc1ncc(Cc2cccc(C(F)(F)F)c2)s1)c1ccc(-n2cnnn2)cc1 | 19.8% | 43.2 µM | > 100 µM | – | 30.1% | 21% | 1.8 | > 100 µM | 30.5% | 32% | growth at 10 µM (OVCAR-4): 33.6%; growth at 10 µM (A549): 34.4%; growth at 10 µM (KM12): 28.8%; growth at 10 µM (NCI/ADR-RES): 35.9%; growth at 10 µM (MDA-MB-468): 16.7%; growth at 10 µM (MOLT-4): 39.4%; growth at 10 µM (MCF7): 28.7%; growth at 10 µM (SK-MEL-5): 37.8%; growth at 10 µM (MDA-MB-435): 24%; growth at 10 µM (HCT-15 [13]): 38.7%; growth at 10 µM (SF-295): 32.2%
8 | 8.3 µM | O=C(Nc1ncc(Cc2ccccc2)s1)c1ccc(-n2cnnn2)cc1 | – | 48.1 µM | 33 µM | – | – | – | – | > 100 µM | – | – | selectivity ratio [14]: 4
9 | > 100 µM | CC(C)c1nnnn1-c1ccc(C(=O)Nc2ncc(Cc3ccccc3)s2)cc1 | – | 8.94 µM | 5.59 µM | – | – | – | – | > 100 µM | – | – | –
